Marks after values point to notes of the source that are not given here.
Assays:
[1] = test system: TCRαβ; assay: Lymphocyte marker analysis by flow cytometry, TCRαβ epitope; format: cell-based, murine (C57BI/6 splenocytes); settings: for percent expression of cell surface molecule TCRαβ: epitope-specific antibody, average of triplicate; for average percent suppression in epitope detection, TCRαβ: relative to untreated control (0 ppm)
Procedure: (§1) To evaluate the action of EGCG in rendering cells to become anergy-inducing, murine splenocytes were used as a model system. Splenocytes were collected from BALB/c (H2 K^b) and C57BI/6 (H2 K^d) female mice of 8 to 13 weeks of age in HBSS (BioWhittaker) with 1% FCS. Cells were washed with HBSS (1% FCS) and treated with the media solution which contains RPMI 1640 (Sigma-Aldrich), 10 mM HEPES (Dojindo), and various concentrations of EGCG (98% purity, Roche) described in the examples.
(§2) Flow cytometric analyses of surface epitopes for the control and EGCG-treated splenocytes were performed using a series of fluorescence-labeled monoclonal anti-mouse CD and MHC and corresponding isotype control antibodies (eBioscience: CD2, CD36, CD4, CD11a, CD25, CD 28, CD 49d and CD80; Pharmingen: TCRαβ and MHC II). Murine splenocytes (C57BI/6) were treated with red blood cell lysis buffer (eBioscience) for 5 min prior to EGCG treatments. Immediately following EGCG-treatments, the splenocytes were washed with RPMI 1640 (10% FCS) and a staining buffer (eBioscience) at 4 degree C. Each splenocyte sample was reconstituted as a 50 μl aliquot in the same staining buffer and subject to antibody labeling. After washing twice the samples with the staining buffer, a minimum of 10,000 events per sample was collected on a Becton Dickinson FACScan flow cytometer.

[2] = target: T1, CD80 (Mus musculus, UniProt Q00609); assay: Lymphocyte marker analysis by flow cytometry, CD80 epitope; format: cell-based, murine (C57BI/6 splenocytes); settings: for percent expression of cell surface molecule CD80: epitope-specific antibody, average of triplicate; for average percent suppression in epitope detection, CD80: relative to untreated control (0 ppm)
T1 construct: endogenous in cells; host or cells: murine splenocytes (C57Bl/6)
T1 sequence (Q00609 38-306): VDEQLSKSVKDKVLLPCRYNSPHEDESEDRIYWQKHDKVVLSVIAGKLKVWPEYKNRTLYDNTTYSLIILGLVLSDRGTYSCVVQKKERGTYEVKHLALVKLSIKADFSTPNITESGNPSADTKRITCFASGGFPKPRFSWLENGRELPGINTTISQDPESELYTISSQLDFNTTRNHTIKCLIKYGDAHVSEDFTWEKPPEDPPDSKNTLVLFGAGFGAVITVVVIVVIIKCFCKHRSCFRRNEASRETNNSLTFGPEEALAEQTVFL
Procedure: as §1, §2

[3] = test system: C57BI/6 splenocytes; assay: Viability of EGCG-treated splenocytes; format: cell-based, murine
Description: In a two-way MLR (FIG. 4), both stimulator and responder populations were left capable of proliferating. […] (penicillin 100 U/ml and streptomycin 100 ppm, BioWhittaker) to a final concentration of 5.0×10^6 cells/ml. […] Cell proliferation was estimated by counting with trypan-blue exclusion a small sample of the cells from each MLR well. […] Thus, the attenuation of proliferation as indicated in the MLR experiments (Example II) was not largely due to an EGCG's direct toxicity to the splenocytes. […] The experiments were performed as in Example II.

[4] = test system: INF-γ production; assay: Cytokine ELISA of one-way MLR supernatants, INF-γ; format: cell-based, murine; settings: versus untreated, FIG. 8
Procedure: (§3) In a one-way MLR (FIG. 3), a stimulator splenocyte population (BALB/c) was treated with 30 ppm mitomycin C (MP Biomedicals) in RPMI 1640 (10% FCS) at 37 degree C. for 30 min. to arrest its proliferation before EGCG treatments. The splenocytes were then resuspended with the media solution (RPMI 1640 and 10 mM HEPES) containing 0, 100, and 200 ppm EGCG and incubated at 4-8 degree C. for 1 hour and twice washed with RPMI 1640 (10% FCS) before used for MLR experiments. In a two-way MLR (FIG. 4), both stimulator and responder populations were left capable of proliferating. Each cell population was resuspended in RPMI 1640 (10% FCS) and antibiotics: (penicillin 100 U/ml and streptomycin 100 ppm, BioWhittaker) to a final concentration of 5.0×10^6 cells/ml. The stimulator and responder cells were mixed with a 1:1 ratio (120 μl each) and incubated in triplicate in 96-well plates for 72 hours at […] and 5% CO2. Cell proliferation was estimated by counting with trypan-blue exclusion a small sample of the cells from each MLR well.
Supernatants from the one-way MLR wells (Example II) were assayed for IL-2 and INF-γ production using cytokine quantification ELISA (e-Bioscience).

[5] = test system: pancreatic β-cell; settings: Han (2003); cited from earlier work
[6] = test system: C57BI/6 splenocytes co-cultured with EGCG-treated BALB/c splenocytes; assay: Occurrence of anergy: secondary stimulation of one-way MLR cultures; format: cell-based, murine; settings: additional 48 hours, FIG. 9
Procedure: as §3

[7] = target: T2, CD3ε (Mus musculus, UniProt P22646); assay: Lymphocyte marker analysis by flow cytometry, CD3ε epitope; format: cell-based, murine (C57BI/6 splenocytes); settings: for percent expression of cell surface molecule CD3ε: epitope-specific antibody, average of triplicate; for average percent suppression in epitope detection, CD3ε: relative to untreated control (0 ppm)
T2 construct: endogenous in cells; host or cells: murine splenocytes (C57Bl/6)
Procedure: as §1, §2

[8] = target: T3, CD25 (Mus musculus, UniProt P01590); assay: Lymphocyte marker analysis by flow cytometry, CD25 epitope; format: cell-based, murine (C57BI/6 splenocytes); settings: for percent expression of cell surface molecule CD25: epitope-specific antibody, average of triplicate; for average percent suppression in epitope detection, CD25: relative to untreated control (0 ppm)
T3 construct: endogenous in cells; host or cells: murine splenocytes (C57Bl/6)
T3 sequence (P01590 22-268): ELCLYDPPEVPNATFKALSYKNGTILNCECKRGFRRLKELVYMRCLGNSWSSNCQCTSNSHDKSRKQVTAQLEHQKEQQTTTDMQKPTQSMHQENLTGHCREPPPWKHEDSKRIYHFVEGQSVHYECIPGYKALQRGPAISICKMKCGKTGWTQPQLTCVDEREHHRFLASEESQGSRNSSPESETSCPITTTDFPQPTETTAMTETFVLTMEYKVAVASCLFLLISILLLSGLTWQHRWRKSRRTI
Procedure: as §1, §2

T2 sequence (P22646 22-189): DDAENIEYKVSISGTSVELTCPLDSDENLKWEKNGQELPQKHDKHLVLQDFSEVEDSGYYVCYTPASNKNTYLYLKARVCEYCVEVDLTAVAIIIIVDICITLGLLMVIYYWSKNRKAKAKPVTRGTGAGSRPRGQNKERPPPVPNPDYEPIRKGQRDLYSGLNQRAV
T2 sequence (P11942 23-182 partner): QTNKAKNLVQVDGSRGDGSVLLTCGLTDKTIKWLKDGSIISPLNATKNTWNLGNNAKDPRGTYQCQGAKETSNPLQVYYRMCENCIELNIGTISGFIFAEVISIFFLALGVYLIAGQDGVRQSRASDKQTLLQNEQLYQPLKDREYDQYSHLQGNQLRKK
T2 sequence (P04235 22-173 partner): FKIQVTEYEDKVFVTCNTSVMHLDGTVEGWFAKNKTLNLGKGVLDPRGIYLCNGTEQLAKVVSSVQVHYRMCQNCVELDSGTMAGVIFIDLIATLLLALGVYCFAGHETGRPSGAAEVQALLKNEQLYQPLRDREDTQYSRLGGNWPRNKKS
T2 sequence (P24161 22-164 partner): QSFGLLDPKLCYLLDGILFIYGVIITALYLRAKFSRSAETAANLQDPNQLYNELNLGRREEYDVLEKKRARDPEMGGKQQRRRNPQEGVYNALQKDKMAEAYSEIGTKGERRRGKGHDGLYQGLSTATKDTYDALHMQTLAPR

## (−)-epigallocatechin-3-o-gallate [EGCG]
[1]; EGCG treatment, summary of TABLE 1
  binding of TCRαβ with its monoclonal antibody: hardly to moderately decreased
[1]; EGCg 100 ppm
  percent expression of cell surface molecule TCRαβ: 29.9%
  average percent suppression in epitope detection, TCRαβ: (3.5)^n.s. percent
[1]; EGCg 200 ppm
  percent expression of cell surface molecule TCRαβ: 29.7%
  average percent suppression in epitope detection, TCRαβ: (4.2)^n.s. percent
[2]; EGCg 100 ppm
  percent expression of cell surface molecule CD80: 3.1%
  average percent suppression in epitope detection, CD80: (85.4)** percent
[2]; EGCg 200 ppm
  percent expression of cell surface molecule CD80: 9.7%
  average percent suppression in epitope detection, CD80: (16.4)** percent
[3]; stimulated (C57BI/6 co-cultured with BALB/c), 24, 48, 72 hours, FIG. 6
  viability of EGCG-treated splenocytes: time-dependent decrease
[3]; unstimulated (C57BI/6 only), 24, 48, 72 hours culture without EGCG, FIG. 5
  viability of EGCG-treated splenocytes: did not significantly decreased
[4]
  production of INF-γ: significantly decreased down to near or below the background levels
[5]
  cytokine-induced pancreatic β-cell damage: suppression
[6]; both treatments (fresh stimulator cells, exogenous IL-2 1.7 IU/ml) added at 48 hours
  T-cell proliferation after secondary stimulation: subtle but significant suppression
[6]; cell-stimulated cultures: fresh BALB/c stimulator cells added at 48 hours
  T-cell proliferation after secondary stimulation: suppressed the proliferation down to the level of unstimulated blank
[7]; 100 vs 200 ppm
  dose dependence of reduction in epitope detection, CD3ε: dose-dependent reduction
[7]; EGCg 100 ppm
  percent expression of cell surface molecule CD3ε: 20.2%
  average percent suppression in epitope detection, CD3ε: (37.5)* percent
[7]; EGCg 200 ppm
  percent expression of cell surface molecule CD3ε: 5.6%
  average percent suppression in epitope detection, CD3ε: (82.7)** percent
[7]; summary of TABLE 1
  blocking of CD3ε by EGCG: strongly blocked
[8]; EGCg 100 ppm
  percent expression of cell surface molecule CD25: 11.6%
  average percent suppression in epitope detection, CD25: (16.5)^n.s. percent
[8]; EGCg 200 ppm
  percent expression of cell surface molecule CD25: 10.8%
  average percent suppression in epitope detection, CD25: (22.3)* percent
[8]; summary of TABLE 1
  blocking of CD25 by EGCG: blocked
